Source: patent publication US12291511B2, “Polymerase inhibitors and related compositions and methods” (Promega Corporation, priority 2018, dated 2025)

Experiments:
Format in all cases: biochemical
Taq [1] = target: T1, Taq (Thermus aquaticus, UniProt P19821); experiment: Hot-start PCR of CCR5 gene (500 bp amplicon) with human genomic DNA as template; conditions: CCR5 target; for 500 bp yield: compared with no hot-start (GoTaq® DNA Polymerase)
Description: Testing of Human Genomic Templates. FIG. 11 includes a representative image of an agarose gel used to evaluate the CCR5 gene amplification products of various hot-start PCR reactions performed with and without two different polymerase inhibitors (compound #7124 and compound #7261) and using human genomic DNA as a template. The target amplicon is 500 bp, and without the use of hot-start, there is a significant amount of primer dimer. With compound #7124 and compound #7261, the 500 bp yield increased, but primer dimer amounts remained (compare to GoTaq® DNA Polymerase treatment for no hot-start and GoTaq® Hot-Start DNA Polymerase with an antibody-mediated hot-start). Reaction components are provided in Table 2 below; the following cycling methods were used: [(22° C. for 90 min, 94° C. for 2 min) 1 cycle, (92° C. for 30 sec, 68° C. for 2 min) 45 cycles, (72° C. for 5 min) 1 cycle, 4° C. soak].

Taq [2] = target: T1, Taq; experiment: Hot-start PCR of Human Dystrophin Alu 7-2 gene (320 bp amplicon) with human genomic DNA as template; conditions: HD Alu 7-2 target; for secondary products (seen as a smear): at certain concentrations; for 320 bp yield: human genomic DNA, compared with no hot-start
Procedure: FIG. 12 includes a representative image of an agarose gel used to evaluate the Human Dystrophin Alu-72 gene amplification products of various hot-start PCR reactions performed with and without two different polymerase inhibitors (compound #7124 and compound #7261) and using human genomic DNA as a template. The target amplicon is 320 bp, and without hot-start, there is less yield. […] Reaction components are provided in Table 2 below; the following cycling methods were used: [(22° C. for 90 min, 94° C. for 2 min) 1 cycle, (94° C. for 50 sec, 59° C. for 50 sec, 68° C. for 2 min) 42 cycles, 4° C. soak].

Taq DNA Polymerase = Taq DNA Polymerase (Thermus aquaticus, UniProt P19821); experiment: Activated calf thymus DNA polymerase activity assay (radioactive incorporation) at 22° C.
Chain of Taq DNA Polymerase (P19821 whole entry): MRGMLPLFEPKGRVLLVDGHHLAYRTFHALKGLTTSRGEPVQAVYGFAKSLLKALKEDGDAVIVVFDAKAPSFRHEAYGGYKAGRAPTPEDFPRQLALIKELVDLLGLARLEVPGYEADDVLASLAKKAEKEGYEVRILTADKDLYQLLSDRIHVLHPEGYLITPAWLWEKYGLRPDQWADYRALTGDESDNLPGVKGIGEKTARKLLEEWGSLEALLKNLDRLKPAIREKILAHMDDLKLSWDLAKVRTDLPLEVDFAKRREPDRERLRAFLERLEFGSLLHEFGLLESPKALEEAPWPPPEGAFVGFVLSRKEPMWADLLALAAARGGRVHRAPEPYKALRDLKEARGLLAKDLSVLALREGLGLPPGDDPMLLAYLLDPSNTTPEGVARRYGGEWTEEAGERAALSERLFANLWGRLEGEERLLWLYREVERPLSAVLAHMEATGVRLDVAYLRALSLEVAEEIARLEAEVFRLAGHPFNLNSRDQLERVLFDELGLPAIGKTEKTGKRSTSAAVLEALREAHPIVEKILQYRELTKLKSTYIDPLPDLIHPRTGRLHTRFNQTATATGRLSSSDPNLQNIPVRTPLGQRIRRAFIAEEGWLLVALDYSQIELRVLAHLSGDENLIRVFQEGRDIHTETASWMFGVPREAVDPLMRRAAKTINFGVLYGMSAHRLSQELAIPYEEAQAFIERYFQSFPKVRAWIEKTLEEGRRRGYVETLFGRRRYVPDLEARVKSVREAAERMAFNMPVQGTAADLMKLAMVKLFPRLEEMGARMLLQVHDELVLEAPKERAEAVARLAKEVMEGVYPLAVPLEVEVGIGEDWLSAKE
Procedure: Activity assays were used to test the concentrations of small molecule polymerase inhibitors in specific reaction conditions to determine inhibition efficacy. Corresponding IC50 values were also determined for the compounds. Activity assays were also used to test the temperatures or temperature ranges at which the reactions are inhibited by the compounds.
Exemplary activity assays can be carried out according to a variety of methods. For example, a DNA polymerase activity assay monitoring radioactive incorporation where “activated” calf thymus or salmon sperm DNA is used as the DNA substrate. Along with the DNA substrate, the reactions minimally contain a buffer (e.g., GoTaq® buffer), magnesium, dNTPs, and polymerase. Reactions were stopped, and DNA was precipitated by ice-cold TCA (tricholoracetic acid), incubated on ice for at least 10 minutes, filtered using GF/C filters, and radioactive incorporation in precipitable DNA (on filter) measured by scintillation counting. (See, e.g., Apospian & Kornberg. (1962) JBC 237:519-525.; Chien et al. (1976) J. Bact. 127:1550-1557.)
FIG. 7 includes a representation of a polymerase activity assay carried out at 22° C., where an inhibitor (i.e. compound #7124) is titrated. FIG. 7 is an example of an activity assay where IC50 can be determined. […] Activated calf thymus DNA activity assay was used in these experiments. […]

[3] = target: T2, GoTaq® DNA Polymerase (Taq DNA polymerase) (Thermus aquaticus, UniProt P19821); experiment: Hot-start PCR of 1.5 kb fragment of the Corynephage omega gene from plasmid DNA, after 22° C. pre-incubation, agarose gel read-out; conditions: '25 to 150 μM or greater' for the derivatives
T2 construct: purchased
T2 sequence (P19821 whole entry, the tested form may be a part): as the sequence (P19821 whole entry) above
Procedure: When carried out using hot-start conditions, the polymerase (e.g., Taq polymerase) was inhibited at lower temperatures, but activated at the start of amplification when temperatures increased to denature the DNA (e.g., 95° C.); the amplification produced a single product approximately 1.5 kb in size. When carried out using non-hot-start conditions, the DNA polymerase was not inhibited at lower temperatures, and amplification produced a product approximately 400 bp in size (among other secondary products), and the 1.5 kb fragment was transiently present. To test the ability of the thermally-labile small molecule polymerase to inhibit DNA polymerase (e.g., Taq DNA polymerase) activity, the amplification reactions were incubated at 22° C. for 1.5 to 6 hours or longer prior to performing PCR amplification.
The amplifications were set up at room temperature. The thermally-labile small molecule polymerase inhibitor(s) were titrated (concentrations will depend on exact compound, enzyme being inhibited, detergent concentration, and other buffer conditions) into reactions. For these experiments, the following composition were used: 1× GoTaq® Colorless Flexi Buffer, 2.5 mM MgCl2, 200 μM each dNTP, 0.4 μM each primer, 0.025 U/μl GoTaq® DNA Polymerase, 500 pg plasmid DNA and nuclease-free water to bring it to a 25 μl reaction. […]

T1 sequence (P19821 whole entry): as above

CCCCCCCCCCCCC(OC(=O)NCCCS(=O)(=O)[O-])c1ccc(OC)cc1.[Na+] (centres unmarked) [compound #7124, Sodium 3-((((1-(4-methoxyphenyl)tridecyl)oxy)carbonyl)amino)propane-1-sulfonate]
primer dimer amounts (Taq [1]): remained | 500 bp yield (Taq [1]): increased | secondary products (seen as a smear) (Taq [2]): dramatically decreased | 320 bp yield (Taq [2]): increased | inhibition ultimately reached as concentration increased (Taq DNA Polymerase; high inhibitor concentration): 100% | IC50 (Taq DNA Polymerase; titration of inhibitor, calculated from graph (FIG. 7)): ~150 µM

CCCCCCCCCCCCC(OC(=O)NCCCS(=O)(=O)[O-])c1ccc(Cl)o1.[Na+] (centres unmarked) [compound #7261, Sodium 3-((((1-(5-chlorofuran-2-yl)tridecyl)oxy)carbonyl)amino)propane-1-sulfonate]
potency of DNA polymerase inhibitors (summary comparison of #7261 with derivatives) [3]: about 75 μM | primer dimer amounts (Taq [1]): remained | 500 bp yield (Taq [1]): increased | secondary products (seen as a smear) (Taq [2]): dramatically decreased | 320 bp yield (Taq [2]): increased
